This note sets out measurements from ChEMBL document CHEMBL1129113, “Adipoyl-6-aminopenicillanic acid is a substrate for deacetoxycephalosporin C synthase (DAOCS)” (Bioorg Med Chem Lett, 1996).

In test [1] the test system is Escherichia coli. Nature of the test: Enzyme catalytic constant (Kcat) against Deacetoxycephalosporin C synthase.
Test [2] has as its system Escherichia coli. In words: Enzyme kinetic constant (Km) against Deacetoxycephalosporin C synthase.

For the molecule `CC1(C)S[C@@H]2[C@H](NC(=O)CCCCC(=O)O)C(=O)N2[C@H]1C(=O)O`, the k cat with Escherichia coli [1] was determined as 0.071 s⁻¹. In the test with Escherichia coli [2], the Km came out at 1.22 mM.
In the case of `CC1(C)S[C@@H]2[C@H](NC(=O)CCC[C@@H](N)C(=O)O)C(=O)N2[C@H]1C(=O)O`, the k cat in the test with Escherichia coli [1] is 0.442 s⁻¹. The Km in the test with Escherichia coli [2] came to 10.3 mM.
